Source: ChEMBL document CHEMBL1150713, “Bioactive stilbenes of Scirpus maritimus” (J Nat Prod, 1987)
Converted amounts (≈) assume the structure as drawn.

Legend:
[1] = Cytotoxicity against mouse 3PS cells xenografted in mouse at 35 mg/kg relative to control; assay type: functional
[2] = Toxicity in Artemia salina; assay type: organism-based; details: in vivo
[3] = system: Spodoptera frugiperda; experiment: Antifeedant activity against Spodoptera frugiperda assessed as feeding ratio for 5 seconds; assay type: functional
[4] = system: Agrobacterium tumefaciens; experiment: Antitumor activity against Agrobacterium tumefaciens-induced crown gall tumor assessed as tumor inhibition in potato tubers by potato disk assay relative to control; assay type: functional
[5] = Cytotoxicity against mouse 3PS cells xenografted in mouse at 37 mg/kg relative to control; assay type: functional
[6] = system: Agrobacterium tumefaciens; experiment: Effect on Agrobacterium tumefaciens-induced crown gall tumor in potato tubers by potato disk assay relative to control; assay type: functional
[7] = Cytotoxicity against mouse 3PS cells xenografted in mouse at 30 mg/kg relative to control; assay type: functional
[8] = Cytotoxicity against mouse 3PS cells xenografted in mouse at 18 mg/kg relative to control; assay type: functional

With Oc1cc(O)cc(/C=C/c2ccc(O)c(O)c2)c1 [PICEATANNOL] the T/C [1] was 131%, the LC50 [2] was 278 µg/mL (≈ 1140 µM) and the Ratio [3] was 0.38. For the same molecule, the “inhibition (INH)” value [4] was 17%.

In the case of Oc1ccc(/C=C/c2cc(O)cc(O)c2)cc1 [RESVERATROL], the T/C [5] is reported as 100% and the Activity [6] is reported as 39%.

Work on Oc1ccc(/C=C/c2cc(O)cc3c2[C@H](c2cc(O)cc(O)c2)[C@@H](c2ccc(O)c(O)c2)O3)cc1 [SCIRPUSIN A] yielded a T/C [7] of 103%, an Activity [6] of 17% and an LC50 [2] of 488 µg/mL (≈ 1040 µM). It also gave a Ratio [3] of 1.

Work on Oc1cc(O)cc(C2c3c(/C=C/c4ccc(O)c(O)c4)cc(O)cc3OC2c2ccc(O)c(O)c2)c1 (centres undefined) [SCIRPUSIN B] yielded a T/C [8] of 99%, an LC50 [2] of 389 µg/mL (≈ 800 µM) and a Ratio [3] of 0.23. For the same molecule, the “inhibition (INH)” value [4] was 40%.
